Experiments:
Assay type in all cases: in vivo
[1] = tested on: Puccinia recondita tritici (leaf rust); assay: Greenhouse Test 1, foliar spray fungicide screen (LEAF RUST), host wheat; details: disease control rating, 400 ppm (+++ at 100 ppm)
[2] = tested on: Botrytis cinerea (gray mold); assay: Greenhouse Test 1, foliar spray fungicide screen (GRAY MOLD), host grape berries; details: disease control rating, 400 ppm (+++ at 100 ppm)
[3] = tested on: melon aphids (Aphis gossypii Glover); assay: Mite/insect screen, sprayed squash cotyledons (MA); details: percent mortality; for mortality at 200 ppm / mortality at 400 ppm: Aphis gossypii, read-out: MA RESULTS %; for mortality at 200 ppm: spray rate 200 ppm; for mortality at 400 ppm: spray rate 400 ppm
Method in brief: (§1)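 Water-diluted formulations of each compound (acetone/alcohol 50:50 with 23 g/L and 13 g/L emulsifier blends) are sprayed over both leaf faces to runoff. After a standard exposure period, percent kill and phytotoxicity are recorded.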

[4] = tested on: Pyricularia oryzae (rice blast); details: disease control rating, foliar spray, host rice; 400 ppm (+++ at 100 ppm)
[5] = tested on: Southern corn rootworm (Diabrotica undecimpuctata howardi Barber); assay: Mite/insect screen, soil treatment (CRW); details: percent mortality; for mortality at 12 ppm / mortality at 24 ppm: Diabrotica, soil treatment, read-out: CRW RESULTS %; for mortality at 12 ppm: CRW rate 12.00 ppm; for mortality at 24 ppm: CRW rate 24.00 ppm
Method in brief: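 Five 2–3 instar larvae were placed on dry sandy soil with a presoaked corn seed after the soil had received 1 mL of compound solution and dried 6–12 h; cups were kept capped at 23°C. Mortality (%) and phytotoxicity were read after standard exposure. Formulation: acetone/alcohol with emulsifiers, water-diluted.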

[6] = tested on: southern armyworm (Spodopetra eridania Cramer); assay: Mite/insect screen, sprayed squash leaves (SAW); details: percent mortality; for mortality at 200 ppm / mortality at 400 ppm: Spodoptera eridania, read-out: SAW RESULTS %; for mortality at 200 ppm: spray rate 200 ppm; for mortality at 400 ppm: spray rate 400 ppm
Method in brief: as §1

[7] = tested on: Twospotted spider mites (Tetranychus urticae Koch); assay: Mite/insect screen, sprayed squash cotyledons (SM); details: percent mortality; for mortality at 200 ppm / mortality at 400 ppm: Tetranychus urticae, read-out: SM RESULTS %; for mortality at 200 ppm: spray rate 200 ppm; for mortality at 400 ppm: spray rate 400 ppm
Method in brief: as §1

[8] = tested on: Erysiphe graminis tritici (powdery mildew); assay: Greenhouse Test 1, foliar spray fungicide screen (POWD MDEW), host wheat; details: disease control rating, 400 ppm (+++ at 100 ppm)
[9] = tested on: Pseudoperonospora cubensis (downy mildew); assay: Greenhouse Test 1, foliar spray fungicide screen (DOWN MDEW), host squash; details: disease control rating, 400 ppm (+++ at 100 ppm)

Row | SMILES | LEAF RUST [1] | GRAY MOLD [2] | mortality at 200 ppm [3] [%] | mortality at 400 ppm [3] [%] | RICE BLAST [4] | mortality at 12 ppm [5] [%] | mortality at 24 ppm [5] [%] | mortality at 200 ppm [6] [%] | mortality at 400 ppm [6] [%] | mortality at 200 ppm [7] [%] | mortality at 400 ppm [7] [%] | POWD MDEW [8] | DOWN MDEW [9] | MA RESULTS % ([3]; rate not given) [%] | CRW RESULTS % ([5]; rate not given) [%] | SAW RESULTS % ([6]; rate not given) [%] | SM RESULTS % ([7]; rate not given) [%]
1 | CCC(COc1ncnc2c(F)cccc12)c1ccc(-c2ccccc2)cc1 (stereo not drawn) [Example 197, 8-fluoro-4-[2-(1,1'-biphenyl)-4-ylbutoxy)quinazoline] | - (- = 0-19% control at 400 ppm) | - (- = 0-19% control at 400 ppm) | 80 | 0 | + (+ = 20-89% control at 400 ppm) | 0 | 0 | 0 | 0 | 80 | 0 | + (+ = 20-89% control at 400 ppm) | - (- = 0-19% control at 400 ppm) |  |  |  | 
2 | c1ccc(Oc2ccc(CCCc3ncnc4ccccc34)cc2)cc1 [Example 164, 4-[3-(4-phenoxyphenyl)propyl]quinazoline] | +++ (+++ = 90-100% control at 100 ppm) | - (- = 0-19% control at 400 ppm) | 80 | 80 | +++ (+++ = 90-100% control at 100 ppm) | 0 | 0 | 40 | 40 | 80 | 20 | + (+ = 20-89% control at 400 ppm) | +++ (+++ = 90-100% control at 100 ppm) |  |  |  | 
3 | CC(C)(C)c1ccc(CCOc2ncnc3c(Cl)cccc23)cc1 [Example 185, 8-chloro-4-[2-[4-(t-butyl)phenyl]ethoxy]quinazoline] | + (+ = 20-89% control at 400 ppm) | - (- = 0-19% control at 400 ppm) | 50 | 30 | ++ (++ = 90-100% control at 400 ppm) | 0 | 0 | 0 | 0 | 80 | 30 | + (+ = 20-89% control at 400 ppm) | ++ (++ = 90-100% control at 400 ppm) |  |  |  | 
4 | Fc1cccc2c(OCCc3ccccc3C(F)(F)F)ncnc12 [Example 56, 8-fluoro-4-[2-[2-(trifluoromethyl)phenyl]ethoxy]quinazoline] | +++ (+++ = 90-100% control at 100 ppm) | - (- = 0-19% control at 400 ppm) | 100 | 0 | +++ (+++ = 90-100% control at 100 ppm) | 0 | 0 | 0 | 0 | 40 | 0 | +++ (+++ = 90-100% control at 100 ppm) | +++ (+++ = 90-100% control at 100 ppm) |  |  |  | 
5 | C=CC(CCOc1ncnc2ccccc12)CCc1ccccc1 (stereo not drawn) [Example 130, 4-[3-ethenyl-5-phenyl-pentyloxy]quinazoline] | - (- = 0-19% control at 400 ppm) | - (- = 0-19% control at 400 ppm) | 80 | 100 | - (- = 0-19% control at 400 ppm) | 0 | 0 | 0 | 0 | 80 | 70 | + (+ = 20-89% control at 400 ppm) | - (- = 0-19% control at 400 ppm) |  |  |  | 
6 | Fc1cccc2c(NCCc3ccc(Cl)cc3)ncnc12 [Example 78, 8-fluoro-N-[2-(4-chlorophenyl)ethyl]-4-quinazolinamine] | +++ (+++ = 90-100% control at 100 ppm) | - (- = 0-19% control at 400 ppm) | 0 | 0 | +++ (+++ = 90-100% control at 100 ppm) | 0 | 100 | 100 | 80 | 0 | 0 | + (+ = 20-89% control at 400 ppm) | +++ (+++ = 90-100% control at 100 ppm) |  |  |  | 
7 | c1ccc(-c2cccc(CCOc3ncnc4ccccc34)c2)cc1 [Example 173, 4-[2-(1,1'-biphenyl)-3-ylethoxy]quinazoline] | + (+ = 20-89% control at 400 ppm) | - (- = 0-19% control at 400 ppm) | 80 | 0 | +++ (+++ = 90-100% control at 100 ppm) | 0 | 0 | 0 | 0 | 0 | 0 | ++ (++ = 90-100% control at 400 ppm) | + (+ = 20-89% control at 400 ppm) |  |  |  | 
8 | c1ccc(Oc2ccc(CCNc3ncnc4ccccc34)cc2)cc1 [Example 104, N-[2-(4-phenoxyphenyl)ethyl]-4-quinazolinamine] | +++ (+++ = 90-100% control at 100 ppm) | - (- = 0-19% control at 400 ppm) |  | 0 | +++ (+++ = 90-100% control at 100 ppm) |  | 100 |  | 100 |  | 0 | +++ (+++ = 90-100% control at 100 ppm) | +++ (+++ = 90-100% control at 100 ppm) | 100 | 0 | 0 | 100
9 | Brc1ccc2ncnc(NCCc3ccc(Oc4ccccc4)cc3)c2c1 [Example 177, 6-bromo-N-[2-(4-phenoxyphenyl)ethyl]-4-quinazolinamine] | +++ (+++ = 90-100% control at 100 ppm) | + (+ = 20-89% control at 400 ppm) | 80 | 50 | +++ (+++ = 90-100% control at 100 ppm) | 0 | 0 | 0 | 0 | 0 | 50 | - (- = 0-19% control at 400 ppm) | +++ (+++ = 90-100% control at 100 ppm) |  |  |  | 
10 | COc1ccc(CCOc2ncnc3c(F)cccc23)cc1OC [Example 112, 8-fluoro-4-[2-(3,4-dimethoxyphenyl)ethoxy]quinazoline] | +++ (+++ = 90-100% control at 100 ppm) | - (- = 0-19% control at 400 ppm) | 80 | 0 | +++ (+++ = 90-100% control at 100 ppm) | 0 | 0 | 0 | 0 | 0 | 0 | + (+ = 20-89% control at 400 ppm) | +++ (+++ = 90-100% control at 100 ppm) |  |  |  | 
11 | c1ccc2c(CCOc3ncnc4ccccc34)cccc2c1 [Example 91, 4-[2-(1-naphthyl)ethoxy]quinazoline] | + (+ = 20-89% control at 400 ppm) | - (- = 0-19% control at 400 ppm) | 0 | 0 | ++ (++ = 90-100% control at 400 ppm) | 0 | 0 | 0 | 0 | 0 | 0 | + (+ = 20-89% control at 400 ppm) | ++ (++ = 90-100% control at 400 ppm) |  |  |  | 
12 | FC(F)(F)c1cccc(CCOc2ncnc3ccccc23)c1 [Example 51, 4-[2-[3-(trifluoromethyl)phenyl]ethoxy]quinazoline] | ++ (++ = 90-100% control at 400 ppm) | - (- = 0-19% control at 400 ppm) |  | 0 | +++ (+++ = 90-100% control at 100 ppm) |  | 0 |  | 0 |  | 0 | ++ (++ = 90-100% control at 400 ppm) | +++ (+++ = 90-100% control at 100 ppm) |  |  |  | 
13 | N#Cc1ccc(CCOc2ncnc3ccccc23)cc1 [Example 183, 4-[2-[(4-quinazolinyl)oxy]ethyl]benzonitrile] | +++ (+++ = 90-100% control at 100 ppm) | - (- = 0-19% control at 400 ppm) | 0 | 0 | ++ (++ = 90-100% control at 400 ppm) | 0 | 80 | 0 | 0 | 0 | 0 | + (+ = 20-89% control at 400 ppm) | + (+ = 20-89% control at 400 ppm) |  |  |  | 

From patent EP0326329B1, “Quinazoline derivatives useful as insecticides” (Dow AgroSciences LLC, priority 1988, dated 1989)
